Results taken from patent US10174023B2, “Heterocyclic-imidazole compounds, pharmaceutical compositions thereof, preparation method therefor and use thereof” (SHANGHAI HUILUN LIFE SCIENCE & TECHNOLOGY CO., LTD, priority 2015, dated 2019).
pIC50: −log10 of the molar value. Read-outs that look alike come from different tables or passages of the source.

Tests used:
[1] = tested on: Human pancreatic cancer CAPAN-1 cells; assay: Tumor inhibition in nude mice tumor model transplanted with human pancreatic cancer CAPAN-1 cells; type: in vivo, BALB/cA-nude mice; conditions: CAPAN-1 xenograft in nude mice, oral, 50 mg/kg, once a day, consecutive 21 days
Protocol: (§1) Example 3. Test of Tumor Inhibition Effect of Compounds of the Present Invention in Mice The following experiments were conducted to evaluate and compare the effects of the present compound alone in mice tumor models transplanted with human breast cancer cell line MDA-MB-436, human breast cancer cell line MX-1 or human pancreatic cancer cell line CAPAN-1 in vivo.
(§2) Test Compound: Example Compound (4)
(§3) BALB/cA-nude mice, 6-7 weeks, female, available from Shanghai SLAC Laboratory Animal Co., Ltd. Certificate number: SCXK (Shanghai) 2012-0002. Breeding environment: SPF grade.
(§4) The Nude mice were subcutaneously inoculated with human breast cancer MDA-MB-436 cells, human breast cancer MX-1 cells or human pancreatic cancer CAPAN-1 cells. After the tumor grew to 100-200 mm^3, the animals were grouped at random (D0). The tumor volume was measured twice or thrice a week, the body weight of the mice was weighed, and the data was recorded. The tumor volume (V) is calculated by using a formula below: V=½×a×b^2 […]
(§5) in which a, and b denote the length and width. T/C(%)=(T−T0)/(C−C0)×100 in which T are C are the tumor volumes at the end of the experiment; and T0 and C0 are the tumor volumes at the beginning of the experiment.

[2] = tested on: Human breast cancer MDA-MB-436 cells; assay: Tumor inhibition in nude mice tumor model transplanted with human breast cancer MDA-MB-436 cells; type: in vivo, BALB/cA-nude mice; conditions: MDA-MB-436 xenograft in nude mice, oral, 30 mg/kg, once a day, consecutive 14 days
Protocol: as §1, §2, §3, §4, §5

[3] = tested on: MDA-MB-436 cells; assay: Cell proliferation inhibition assay (CellTiter-Glo, 120 hrs); type: cell-based, human; conditions: 120 hrs incubation, read-out: ED50 (MDA-MB-436); for pIC50: Homo sapiens
Protocol: Example 2. Cell Proliferation Inhibition Assay
The proliferation inhibitory activity of the compound of the present invention on the breast cancer cell line MDA-MB-436 of triple negative phenotype was tested in vitro.
1. Tumor cell line MDA-MB-436 supplied from HD Biosciences (Shanghai) Co., Ltd., and passed the Mycoplasma detection.
7. CellTiter-Glo Luminescent Cell Viability Assay, Promega, Catalog #: G7571.
Formulation of Compound Solutions
1. Each test compound was formulated into a 60 mM stock solution in DMSO, packaged, and stored in a freezer at −80°. The stock solution of each test compound was serially diluted in DMSO to give solutions at various concentration gradients, including 6 mM, 2 mM, 0.6 mM, 0.2 mM, 60 μM, and 20 μM.
2. Just before experiment, the formulated solution at various concentration gradients of each test compound was aseptically 100-fold diluted in the complete cell culture medium. In this case, the concentration gradients of the test compound included 60 μM, 20 μM, 6 μM, 2 μM, 0.6 μM, and 0.2 μM. These were 2× compound solutions, and could be used to treat the cells.
3. The stock solution of Compounds (1) to (21) and the control compound AZD2281 was serially diluted in DMSO to give solutions at various concentration gradients, including 20 μM, 2 μM, 0.2 μM, 0.02 μM, 0.002 μM, and 0.0002 μM. Before experiment, the formulated solution at various concentration gradients of each test compound was aseptically 100-fold diluted in the complete cell culture medium. The concentration gradients of the positive compound included 200 nM, 20 nM, 2 nM, 0.2 nM, 0.02 nM, and 0.002 nM. These were 2× compound solutions, and could be used to treat the cells.
1. One day before treatment with the compounds, the cells were inoculated into a 96-well plate at a density of 8000 cells/50 μl/well.
2. On the following day, the formulated 2× compound solutions were added, in accordance with a compound arrangement pattern, to the plate in an amount of 50 μl/well.
3. The plate was gently agitaged, and incubated for 120 hrs in an incubator at 37° C.
4. After incubation, the formulated reagent was added to the plate following instruction of the CellTiter Glo reagent, fully mixed, and incubated for 10 min at room temperature in the dark.
5. The plate was analyzed on a plate reader, the chemiluminescence was read, and the data was recorded.
The reading of each well needs to be converted into cell viability. The cell viability can be calculated using the following formula: […]
The processed data was subjected to non-linear regression analysis by using the GraphPad Prism5 analysis software, to obtain a dose-response curve; and the median effective dose (ED50) of test compounds for the MDA-MB-436 cells was calculated.

[4] = tested on: Human breast cancer MX-1 cells; assay: Tumor inhibition in nude mice tumor model transplanted with human breast cancer MX-1 cells; type: in vivo, BALB/cA-nude mice; conditions: MX-1 xenograft in nude mice, oral, 50 mg/kg, once a day, consecutive 21 days
Protocol: as §1, §2, §3, §4, §5

Compound | pIC50 [3] | also measured
O=C(c1cc(Cc2n[nH]c(=O)c3ccccc23)ccc1F)N1CCN(C(=O)C2CC2)CC1 [AZD2281, reference compound] | < 4.60 | Tumor inhibition [1]: 57%; Tumor inhibition [2]: 83%; Tumor inhibition [4]: 13%
O=C(c1cc(Cc2n[nH]c(=O)c3ccccc23)ccc1F)N1CCN(c2ccc3[nH]nnc3n2)CC1 [Compound (1), 4-(3-(4-(1H-[1,2,3]triazolo[4,5-b]pyridin-5-yl)piperazine-1-carbonyl)-4-fluorobenzyl)phthalazin-1(2H)-one] | < 4.60 | –
Cc1nc2nc(N3CCN(C(=O)c4cc(Cc5n[nH]c(=O)c6ccccc56)ccc4F)CC3)ccc2[nH]1 [Compound (2), 4-(4-fluoro-3-(4-(2-methyl-1H-imidazo[4,5-b]pyridin-5-yl)piperazine-1-carbonyl)benzyl)phthalazin-1(2H)-one] | < 4.60 | –
O=C(c1cc(Cc2n[nH]c(=O)c3ccccc23)ccc1F)N1CCN(c2ccc3[nH]c(C(F)(F)F)nc3n2)CC1 [Compound (3)] | – | IC50 [3]: >25 µM
O=C(c1cc(Cc2n[nH]c(=O)c3ccccc23)ccc1F)N1CCN(c2ccc3[nH]cnc3n2)CC1 [Compound (4), 4-(3-(4-(1H-imidazo[4,5-b]pyridin-5-yl)piperazine-1-carbonyl)-4-fluorobenzyl)phthalazin-1(2H)-one] | 6.15 | Tumor inhibition [1]: 128%; Tumor inhibition [2]: 191%; Tumor inhibition [4]: 193%
O=C(c1cc(Cc2n[nH]c(=O)c3ccccc23)ccc1F)N1CCN(c2ccc3[nH]c(=O)[nH]c3n2)CC1 [Compound (5), 4-(4-fluoro-3-(4-(2-oxo-2,3-dihydro-1H-imidazo[4,5-b]pyridin-5-yl)piperazine-1-carbonyl)benzyl)phthalazin-1(2H)-one] | < 4.60 | –
O=C(c1cc(Cc2n[nH]c(=O)c3ccccc23)ccc1F)N1CCN(c2cc3nc[nH]c3cn2)CC1 [Compound (6), 4-(3-(4-(3H-imidazo[4,5-c]pyridin-6-yl)piperazine-1-carbonyl)-4-fluorobenzyl)phthalazin-1(2H)-one] | 4.74 | –
O=C(c1cc(Cc2n[nH]c(=O)c3ccccc23)ccc1F)N1CCN(c2cnc3[nH]cnc3c2)CC1 [Compound (7), 4-(3-(4-(3H-imidazo[4,5-b]pyridin-6-yl)piperazine-1-carbonyl)-4-fluorobenzyl)phthalazin-1(2H)-one] | < 4.60 | –
O=C(c1cc(Cc2n[nH]c(=O)c3ccccc23)ccc1F)N1CCN(c2ncc3[nH]cnc3n2)CC1 [Compound (8), 4-(3-(4-(7H-purin-2-yl)piperazine-1-carbonyl)-4-fluorobenzyl)phthalazin-1(2H)-one] | 5.85 | –
O=C(c1cccc(Cc2n[nH]c(=O)c3ccccc23)c1)N1CCN(c2ccc3[nH]c(=O)[nH]c3n2)CC1 [Compound (9)] | < 4.60 | –
O=C(c1cccc(Cc2n[nH]c(=O)c3ccccc23)c1)N1CCN(c2ccc3[nH]nnc3n2)CC1 [Compound (10), 4-(3-(4-(1H-[1,2,3]triazolo[4,5-b]pyridin-5-yl)piperazine-1-carbonyl)-benzyl)phthalazin-1 (2H)-one] | < 4.60 | –
Cc1nc2nc(N3CCN(C(=O)c4cccc(Cc5n[nH]c(=O)c6ccccc56)c4)CC3)ccc2[nH]1 [Compound (11), 4-(3-(4-(2-methyl-1H-imidazo[4,5-b]pyridin-5-yl)piperazine-1-carbonyl)benzyl)phthalazin-1(2H)-one] | < 4.60 | –
O=C(c1cccc(Cc2n[nH]c(=O)c3ccccc23)c1)N1CCN(c2ccc3[nH]c(C(F)(F)F)nc3n2)CC1 [Compound (12)] | – | IC50 [3]: >25 µM
O=C(c1cccc(Cc2n[nH]c(=O)c3ccccc23)c1)N1CCN(c2ccc3[nH]cnc3n2)CC1 [Compound (13), 4-(3-(4-(1H-imidazo[4,5-b]pyridin-5-yl)piperazine-1-carbonyl)benzyl)phthalazin-1(2H)-one] | 6.15 | –
COc1ccc(Cc2n[nH]c(=O)c3ccccc23)cc1C(=O)N1CCN(c2ccc3[nH]cnc3n2)CC1 [Compound (14), 4-(3-(4-(1H-imidazo[4,5-b]pyridin-5-yl)piperazine-1-carbonyl)-4-methoxybenzyl)phthalazin-1(2H)-one] | 5.17 | –
O=C(c1cc(Cc2n[nH]c(=O)c3ccccc23)ccc1C(F)(F)F)N1CCN(c2ccc3[nH]cnc3n2)CC1 [Compound (15), 4-(3-(4-(1H-imidazo[4,5-b]pyridin-5-yl)piperazine-1-carbonyl)-4-trifluoromethylbenzyl)phthalazin-1(2H)-one] | 4.64 | –
O=C(c1cc(Cc2n[nH]c(=O)c3ccccc23)ccc1C(F)(F)F)N1CCN(c2ccc3[nH]nnc3n2)CC1 [Compound (16), 4-(3-(4-(1H-[1,2,3]triazolo[4,5-b]pyridin-5-yl)piperazine-1-carbonyl)-4-trifluoromethylbenzyl)phthalazin-1(2H)-one] | < 4.60 | –
O=C(c1cc(Cc2n[nH]c(=O)c3ccccc23)ccc1C(F)(F)F)N1CCN(c2ccc3[nH]c(=O)[nH]c3n2)CC1 [Compound (17), 4-(3-(4-(2-oxo-2,3-dihydro-1H-imidazo[4,5-b]pyridin-5-yl)piperazine-1-carbonyl)-4-trifluoromethylbenzyl)phthalazin-1(2H)-one] | < 4.60 | –
COc1ccc(Cc2n[nH]c(=O)c3ccccc23)cc1C(=O)N1CCN(c2cc3nc[nH]c3cn2)CC1 [Compound (18), 4-(3-(4-(3H-imidazo[4,5-c]pyridin-6-yl)piperazine-1-carbonyl)-4-methoxybenzyl)phthalazin-1(2H)-one] | < 4.60 | –
O=C(c1cc(Cc2n[nH]c(=O)c3ccccc23)ccc1C(F)(F)F)N1CCN(c2cc3nc[nH]c3cn2)CC1 [Compound (19), 4-(3-(4-(3H-imidazo[4,5-c]pyridin-6-yl)piperazine-1-carbonyl)-4-trifluoromethylbenzyl)phthalazin-1(2H)-one] | < 4.60 | –
O=C(c1cc(Cc2n[nH]c(=O)c3ccccc23)ccc1C(F)(F)F)N1CCN(c2cnc3[nH]cnc3c2)CC1 [Compound (20), 4-(3-(4-(3H-imidazo[4,5-b]pyridin-6-yl)piperazine-1-carbonyl)-4-trifluoromethylbenzyl)phthalazin-1(2H)-one] | < 4.60 | –
COc1ccc(Cc2n[nH]c(=O)c3ccccc23)cc1C(=O)N1CCN(c2cnc3[nH]cnc3c2)CC1 [Compound (21), 4-(3-(4-(3H-imidazo[4,5-b]pyridin-6-yl)piperazine-1-carbonyl)-4-methoxybenzyl)phthalazin-1(2H)-one] | < 4.60 | –
